What all share (assay type): functional
In one assay the test system is Bacillus subtilis. In words: Antibacterial activity against Bacillus subtilis ATCC 6633 after 24 hrs by MTT assay. As to conditions: ATCC 6633, 24 h.
For the next assay, the system named is Pseudomonas aeruginosa. In words: Antibacterial activity against sPseudomonas aeruginosa ATCC 13525 after 24 hrs by MTT assay. Particulars: ATCC 13525, 24 h.
The next assay relates to Escherichia coli. In words: Antibacterial activity against Escherichia coli ATCC 35218 after 24 hrs by MTT assay. As to conditions: ATCC 35218, 24 h. In general terms: Formazan colour is commonly taken as a measure of viable cells.
The next assay concerns Enterobacter cloacae. In words: Antibacterial activity against Enterobacter cloacae ATCC 13047 after 24 hrs by MTT assay. As to conditions: ATCC 13047, 24 h.
The test system of another assay is Staphylococcus aureus. Nature of the assay: Antibacterial activity against Staphylococcus aureus ATCC 6538 after 24 hrs by MTT assay. As to conditions: ATCC 6538, 24 h.
The test system of another assay is Enterococcus faecalis. Nature of the assay: microbe, parasite or virus in culture. Particulars: ATCC 9790, 24 h.

Data on 14 compounds can be found in ChEMBL document CHEMBL1137682, “Synthesis, characterization and structure-activity relationship analysis of novel depsides as potential antibacterials” (2009).

SMILES strings stand for the structures. ≈ marks a conversion by molar mass, not a printed value.

Regarding `COC(=O)Cc1ccccc1OC(=O)Cc1ccc(Br)cc1`, the MIC in the assay with Bacillus subtilis is 6.25 µg/mL (≈ 17.2 µM); in the assay with Pseudomonas aeruginosa, 25 µg/mL (≈ 68.8 µM); against Escherichia coli it was above 50 µg/mL; with Enterobacter cloacae, 3.12 µg/mL (≈ 8.6 µM); in the assay with Staphylococcus aureus, 6.25 µg/mL (≈ 17.2 µM); in the assay with Enterococcus faecalis it was 6.25 µg/mL (≈ 17.2 µM).

With `COC(=O)Cc1ccccc1OC(=O)Cc1cccc(OC)c1`, the MIC against Bacillus subtilis was above 50 µg/mL; with Pseudomonas aeruginosa, 6.25 µg/mL (≈ 19.9 µM); with Escherichia coli, above 50 µg/mL; against Enterobacter cloacae, above 50 µg/mL; in the assay with Staphylococcus aureus it was 25 µg/mL (≈ 79.5 µM); against Enterococcus faecalis, above 50 µg/mL.

As to `CCOC(=O)Cc1ccccc1OC(=O)Cc1ccc(OCC)c(OCC)c1`, the MIC with Bacillus subtilis amounted to 12.5 µg/mL (≈ 32.3 µM); against Pseudomonas aeruginosa, 3.12 µg/mL (≈ 8.09 µM); against Escherichia coli, 1.56 µg/mL (≈ 4.04 µM); in the assay on Enterobacter cloacae it was 3.12 µg/mL (≈ 8.09 µM); in the assay with Staphylococcus aureus, 3.12 µg/mL (≈ 8.09 µM); against Enterococcus faecalis, 1.56 µg/mL (≈ 4.04 µM).

Turning to `CCOC(=O)Cc1ccccc1OC(=O)c1cccc([N+](=O)[O-])c1`, the MIC in the assay with Bacillus subtilis was found to be 0.78 µg/mL (≈ 2.37 µM); against Pseudomonas aeruginosa, 6.25 µg/mL (≈ 19 µM); in the assay on Escherichia coli, 3.12 µg/mL (≈ 9.49 µM); in the assay with Enterobacter cloacae it was 6.25 µg/mL (≈ 19 µM); in the assay on Staphylococcus aureus, 3.12 µg/mL (≈ 9.49 µM); against Enterococcus faecalis, 1.56 µg/mL (≈ 4.74 µM).

Take `COC(=O)c1ccc(O)cc1` [METHYLPARABEN]: the MIC was 6.25 µg/mL (≈ 41.1 µM) in the assay on Bacillus subtilis; 6.25 µg/mL (≈ 41.1 µM) against Pseudomonas aeruginosa; 6.25 µg/mL (≈ 41.1 µM) against Escherichia coli; 25 µg/mL (≈ 164 µM) against Enterobacter cloacae; 6.25 µg/mL (≈ 41.1 µM) in the assay with Staphylococcus aureus; 12.5 µg/mL (≈ 82.2 µM) against Enterococcus faecalis.

Turning to `COC(=O)Cc1ccccc1O`, the MIC in the assay on Bacillus subtilis is 12.5 µg/mL (≈ 75.2 µM); against Pseudomonas aeruginosa, 25 µg/mL (≈ 150 µM); in the assay on Escherichia coli, 12.5 µg/mL (≈ 75.2 µM); in the assay with Enterobacter cloacae, 6.25 µg/mL (≈ 37.6 µM); in the assay with Staphylococcus aureus it was 6.25 µg/mL (≈ 37.6 µM); in the assay on Enterococcus faecalis, 12.5 µg/mL (≈ 75.2 µM).

As for `COC(=O)Cc1ccccc1OC(=O)c1cccc([N+](=O)[O-])c1`, the MIC in the assay with Bacillus subtilis was 0.78 µg/mL (≈ 2.47 µM); against Pseudomonas aeruginosa, 6.25 µg/mL (≈ 19.8 µM); in the assay with Escherichia coli, 3.12 µg/mL (≈ 9.91 µM); with Enterobacter cloacae it was 12.5 µg/mL (≈ 39.6 µM); against Staphylococcus aureus it was 1.56 µg/mL (≈ 4.95 µM); against Enterococcus faecalis, 1.56 µg/mL (≈ 4.95 µM).

Consider `CCOC(=O)Cc1ccccc1OC(=O)Cc1ccc(OC)c(OC)c1`, for which the MIC in the assay with Bacillus subtilis is 12.5 µg/mL (≈ 34.9 µM); against Pseudomonas aeruginosa it was 12.5 µg/mL (≈ 34.9 µM); in the assay on Escherichia coli it was above 50 µg/mL; against Enterobacter cloacae, 6.25 µg/mL (≈ 17.4 µM); against Staphylococcus aureus, 25 µg/mL (≈ 69.8 µM); with Enterococcus faecalis, above 50 µg/mL.

Take `CCOC(=O)Cc1ccccc1O`: the MIC was 6.25 µg/mL (≈ 34.7 µM) in the assay on Bacillus subtilis; 12.5 µg/mL (≈ 69.4 µM) with Pseudomonas aeruginosa; 25 µg/mL (≈ 139 µM) against Escherichia coli; 12.5 µg/mL (≈ 69.4 µM) against Enterobacter cloacae; 12.5 µg/mL (≈ 69.4 µM) against Staphylococcus aureus; 25 µg/mL (≈ 139 µM) against Enterococcus faecalis.

Consider `COC(=O)Cc1ccccc1OC(=O)Cc1ccc(Cl)cc1`, for which the MIC against Bacillus subtilis was 12.5 µg/mL (≈ 39.2 µM); with Pseudomonas aeruginosa it was above 50 µg/mL; with Escherichia coli, 6.25 µg/mL (≈ 19.6 µM); against Enterobacter cloacae, 12.5 µg/mL (≈ 39.2 µM); with Staphylococcus aureus, 3.12 µg/mL (≈ 9.8 µM); against Enterococcus faecalis, 25 µg/mL (≈ 78.4 µM).

`COC(=O)Cc1ccccc1OC(=O)Cc1ccc(OC)c(OC)c1`: the MIC against Bacillus subtilis was 25 µg/mL (≈ 72.6 µM); in the assay on Pseudomonas aeruginosa, 6.25 µg/mL (≈ 18.1 µM); against Escherichia coli, above 50 µg/mL; in the assay on Enterobacter cloacae, 6.25 µg/mL (≈ 18.1 µM); in the assay with Staphylococcus aureus, above 50 µg/mL; against Enterococcus faecalis, above 50 µg/mL.

As to `COC(=O)Cc1ccccc1OC(=O)Cc1cccc(Cl)c1`, the MIC with Bacillus subtilis is 3.12 µg/mL (≈ 9.8 µM); in the assay on Pseudomonas aeruginosa, 12.5 µg/mL (≈ 39.2 µM); in the assay with Escherichia coli it was above 50 µg/mL; against Enterobacter cloacae, 25 µg/mL (≈ 78.4 µM); in the assay on Staphylococcus aureus, 3.12 µg/mL (≈ 9.8 µM); in the assay with Enterococcus faecalis, 12.5 µg/mL (≈ 39.2 µM).

For the compound `COC(=O)Cc1ccccc1OC(=O)Cc1ccc(F)cc1`, the MIC stood at 6.25 µg/mL (≈ 20.7 µM) in the assay with Bacillus subtilis; 25 µg/mL (≈ 82.7 µM) in the assay on Pseudomonas aeruginosa; 25 µg/mL (≈ 82.7 µM) in the assay on Escherichia coli; 6.25 µg/mL (≈ 20.7 µM) in the assay with Enterobacter cloacae; 12.5 µg/mL (≈ 41.3 µM) in the assay with Staphylococcus aureus; 12.5 µg/mL (≈ 41.3 µM) with Enterococcus faecalis.

As to `CCOC(=O)Cc1ccccc1OC(=O)Cc1ccc(Br)cc1`, the MIC in the assay with Bacillus subtilis was 12.5 µg/mL (≈ 33.1 µM); in the assay with Pseudomonas aeruginosa, 25 µg/mL (≈ 66.3 µM); against Escherichia coli, above 50 µg/mL; in the assay with Enterobacter cloacae, 3.12 µg/mL (≈ 8.28 µM); against Staphylococcus aureus, 12.5 µg/mL (≈ 33.1 µM); in the assay on Enterococcus faecalis it was above 50 µg/mL.
